Columns and labels:
[1] = molecular target: T1, adenosine (purine) receptors (Cavia porcellus, UniProt P47745); assay: Guinea pig ileum twitch test: purine receptor antagonism against 2-chloroadenosine (Schild regression); details: agonist 2-chloroadenosine
T1 construct: Ilea were removed from sacrificed guinea pigs; from tissue; host or cells: guinea pig ileum
T1 sequence (P47745 1-326): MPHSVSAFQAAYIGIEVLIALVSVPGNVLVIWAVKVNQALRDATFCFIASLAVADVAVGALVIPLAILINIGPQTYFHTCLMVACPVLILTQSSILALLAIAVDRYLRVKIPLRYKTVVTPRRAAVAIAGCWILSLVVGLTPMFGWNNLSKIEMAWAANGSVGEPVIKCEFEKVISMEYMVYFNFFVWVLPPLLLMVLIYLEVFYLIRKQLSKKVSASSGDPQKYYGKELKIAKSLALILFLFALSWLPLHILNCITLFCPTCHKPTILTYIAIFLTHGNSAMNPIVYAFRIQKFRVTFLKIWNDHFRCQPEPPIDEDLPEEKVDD
Method: Accordingly, a representative number of compounds of the present invention were tested for their ability to antagonise the purine receptors using the guinea pig ileum test system.
Ilea were removed from sacrificed guinea pigs and placed in organ baths containing oxygenated Krebs-Henseleit buffer. After equilibration, the ilea were stimulated to contract (twitch contraction) using an electrical field-stimulus of 0.1 Hz, 0.05 ms duration and maximal voltage. Under these conditions, the twitch contraction results from the release of acetylcholine.
Concentration response curves to the purine agonist, 2-chloroadenosine, were determined first in the absence and then in the presnce of multiple concentrations of the compounds of the invention. One concentration of each compound was used per tissue. Quantification of purine receptor antagonism was accomplished using the Schild regression technique, i.e. plots of log (dose-ratio-l) vs log compound concentration, and the pA2 determined by regression of the data points to the x-intercept, where log (dose-ratio-l) is zero.

AIDV = assay: Anti-retroviral activity against AIDV; parameters: species or system AIDV (HTLV III); details: in words

Compound	pA2 guinea pig ileum (slope): slope of Schild regression [1]	anti-retroviral activity, especially against AIDV (AIDV)
CC(C)Cn1c(=O)c2nc(-c3ccc(/C=C/C(=O)O)cc3)[nH]c2n(CC(C)C)c1=O [Example 19, (E)-4-(1,2,3,6-tetrahydro-1,3-diisobutyl-2,6-dioxo-9H-purin-8-yl) cinnamic acid]	1.0	–
Cn1c(=O)c2nc(-c3ccc(/C=C/C(=O)O)cc3)[nH]c2n(Cc2ccccc2)c1=O [Example 18, (E)-4-(3-benzyl-1,2,3,6-tetrahydro-1-methyl-2,6-dioxo-9H-purin-8-yl) cinnamic acid]	0.9	–
O=C(O)/C=C/c1ccc(-c2nc3c(=O)n(Cc4ccccc4)c(=O)n(Cc4ccccc4)c3[nH]2)cc1 [Example 15, (E)-4-(1,3-dibenzyl-1,2,3,6-tetrahydro-2,6-dioxo-9H-purin-8 yl) cinnamic acid]	0.9	especially potent activity against AIDV
CCCCn1c(=O)c2nc(-c3ccc(/C=C/C(=O)O)cc3)[nH]c2n(CCCC)c1=O [Example 14, (E)-4-(1,3-dibutyl-1,2,3,6-tetrahydro-2,6-dioxo-9H-purin-8-yl)cinnamic acid]	1.0	–

Second part, led by results:

pA2 guinea pig ileum (slope): slope of Schild regression [1]	Compound	anti-retroviral activity, especially against AIDV (AIDV)
0.9	CCCn1c(=O)c2nc(-c3ccc(/C=C/C(=O)O)cc3)[nH]c2n(CCC)c1=O [Example 6, (E)-4-(1,2,3,6-tetrahydro-2,6-dioxo-1,3-dipropyl-9H-purin-8-yl)cinnamic acid]	–
1.0	CCCn1c(=O)n(C)c(=O)c2nc(-c3ccc(/C=C/C(=O)O)cc3)[nH]c21 [Example 11, (E)-4-(1,2,3,6-tetrahydro-1-methyl-2,6-dioxo-3-propyl-9H-purin-8-yl)cinnamic acid]	–
